The structures appear in SMILES notation. Where a name gives a salt, the structure may show the parent alone. Residues, ends and D or L forms follow the SMILES beside them. *: point of attachment. Farnesyl = CC(C)=CCC/C(C)=C/CC/C(C)=C/C*; Boc = CC(C)(C)OC(=O)*; CHN2 = [N-]=[N+]=C* Bounds are passed on as bounds.

In one assay the test system is Nalm-6 (B-lineage ALL). Description: MTT cytotoxicity assay, Nalm-6. It counts as cell-based. The note with it: Homo sapiens, 24-36 hours at 37° C., 0.1 to 250 μM. The procedure:
(§1) Cytotoxicity of various compounds against tumor cells was performed using the MTT (3-[4,5-[…]]-2,5-diphenyl tetrazolium bromide) assay (Boehringer Mannheim Corp., Indianapolis, Ind.). Unless otherwise specified, all cell lines were obtained from the American Type Culture Collection (ATCC). Briefly, exponentially growing cells were seeded into a 96-well plate at a density of 2.5×10^4 cells/well and incubated for 36 hours at 37° C. prior to drug exposure. On the day of treatment, culture medium was carefully aspirated from the wells and replaced with fresh medium containing the indicated compound at concentrations ranging from 0.1 to 250 μM. Triplicate wells were used for each treatment.
(§2) Human leukemic cell lines (NALM-6, MOLT-3) glioblastoma cells (U373) and human breast tumor cell lines (BT20 and MDA-MB-231) were obtained from the American Type Culture Collection and maintained as a continuous cell line in Dulbecco's modified Eagles's medium supplemented with 10% fetal bovine serum and antibiotics.
(§3) The cells were incubated with the various compounds for 24-36 hours at 37° C. in a humidified 5% CO2 atmosphere. To each well, 10 μl of MTT (0.5 mg/ml final concentration) was added and the plates were incubated at 37° C. for 4 hours to allow MTT to form formazan crystals by reacting with metabolically active cells. The formazan crystals were solubilized overnight at 37° C. in a solution containing 10% SDS in 0.01 M HCl. The absorbence of each well was measured in a microplate reader (Labsystems) at 540 nm and a reference wavelength of […]. To translate the OD540 values into the number of live cells in each well, the OD540 values were compared to those on standard OD540 --versus--cell number curves generated for each cell line. The percent survival was calculated using the formula: [formula]
(§4) The IC50 values were calculated by non-linear regression analysis and are shown below in Tables 1-6.
Background: Tetrazolium assays rely on reduction of a dye to a coloured formazan, in cell work by metabolically active cells.

The next assay deals with Molt-3 (T-lineage ALL). Briefly: MTT cytotoxicity assay, Molt-3. It counts as cell-based, human. The note with it: Homo sapiens, MOLT-3, MTT, 24-36 hours at 37° C., 0.1 to 250 μM. As for the experimental part:
as §1, §2, §3, §4

In a further assay the test system is BT-20 (breast cancer). Description: MTT cytotoxicity assay, BT-20. It is filed as cell-based. The note with it: Homo sapiens, 24-36 hours at 37° C., 0.1 to 250 μM. The procedure:
as §1, §2, §3, §4

The next assay concerns PC-3 (prostate cancer). Description: MTT cytotoxicity assay, PC-3. It counts as cell-based. The note with it: 24-36 hours at 37° C., 0.1 to 250 μM. The procedure: as §1, §3, §4
Another assay has as its system U-373 (glioblastoma). Description: MTT cytotoxicity assay, U-373. The note with it: Homo sapiens, U373 MG, 24-36 hours at 37° C., 0.1 to 250 μM. It counts as cell-based. The procedure: as §1, §2, §3, §4

As to `CC(C)=CCC/C(C)=C/CC/C(C)=C/CSC[C@H](NC(=O)CNC(=O)OC(C)(C)C)C(=O)C=[N+]=[N-]` [HI-401, N-Boc-Gly-S-trans-trans-farnesyl-Cys diazomethyl ketone] (Boc-Gly-Cys(Farnesyl)-CHN2), the IC50 was 51.3 µM in the assay with Nalm-6 (B-lineage ALL); 84.5 µM in the assay on Molt-3 (T-lineage ALL); 95.1 µM in the assay with BT-20 (breast cancer); 90.6 µM with PC-3 (prostate cancer); > 100 µM with U-373 (glioblastoma).

For `CC(=O)N[C@@H](CSC(C)(C)C)C(=O)CCl` [HI-349, N-Ac-S-t-butyl-cysteine chloromethyl ketone], the IC50 is 71 µM in the assay with Nalm-6 (B-lineage ALL); 71.9 µM in the assay with Molt-3 (T-lineage ALL); > 100 µM in the assay with BT-20 (breast cancer); > 100 µM in the assay on PC-3 (prostate cancer); > 100 µM in the assay with U-373 (glioblastoma).

On to `CCCCCCCCCCCCSC[C@H](N)C(=O)CCl` [HI-252, S-Dodecyl-Cys chloromethyl ketone hydrochloride], for which the IC50 in the assay on Nalm-6 (B-lineage ALL) was 17.7 µM; with Molt-3 (T-lineage ALL), 12.5 µM; with BT-20 (breast cancer), > 100 µM; in the assay with PC-3 (prostate cancer) it was > 100 µM; in the assay with U-373 (glioblastoma), > 100 µM.

As for `CC(=O)N[C@@H](CSC/C=C(\C)CC/C=C(\C)CCC=C(C)C)C(=O)C=[N+]=[N-]` [HI-367, N-Ac-S-trans-trans-farnesyl-Cys diazomethyl ketone], the IC50 was 30.3 µM with Nalm-6 (B-lineage ALL); 32.2 µM in the assay on Molt-3 (T-lineage ALL); > 100 µM in the assay with BT-20 (breast cancer); > 100 µM in the assay with PC-3 (prostate cancer); > 100 µM with U-373 (glioblastoma).

As to `CCCCCCCCCCCCSC[C@H](NC(C)=O)C(=O)CSc1ccccc1` [HI-269, N-Ac-S-dodecyl-Cys-CH2 -SPh], the IC50 in the assay on Nalm-6 (B-lineage ALL), with Molt-3 (T-lineage ALL), with BT-20 (breast cancer), with PC-3 (prostate cancer) and in the assay with U-373 (glioblastoma) was > 100 µM each time.

On to `CC(=O)N[C@@H](CSC/C=C(\C)CCC=C(C)C)C(=O)C=[N+]=[N-]` [HI-122, N-Ac-S-trans-geranyl-Cys diazomethyl ketone], for which the IC50 in the assay with Nalm-6 (B-lineage ALL), with Molt-3 (T-lineage ALL), in the assay with BT-20 (breast cancer), in the assay on PC-3 (prostate cancer) and in the assay with U-373 (glioblastoma) was > 100 µM in each case.

As to `CCCCCCCCCCCCSC[C@H](NC(C)=O)C(=O)CSCCC(=O)O` [HI-273, N-Ac-S-dodecyl-Cys-CH2 -S-CH2 CH2 CO2 H], the IC50 in the assay on Nalm-6 (B-lineage ALL) is 44.4 µM; with Molt-3 (T-lineage ALL), 50.3 µM; in the assay with BT-20 (breast cancer), 20.1 µM; in the assay on PC-3 (prostate cancer), > 100 µM; in the assay with U-373 (glioblastoma), > 100 µM.

In the case of `CC(C)=CCC/C(C)=C/CC/C(C)=C/CSC[C@H](NC(=O)OC(C)(C)C)C(=O)C=[N+]=[N-]` [HI-82, N-Boc-S-farnesyl-Cys diazomethyl ketone], the IC50 is 49.8 µM with Nalm-6 (B-lineage ALL); 50.1 µM in the assay on Molt-3 (T-lineage ALL); > 100 µM with BT-20 (breast cancer); > 100 µM in the assay on PC-3 (prostate cancer); > 100 µM in the assay on U-373 (glioblastoma).

As for `CCCCCCCCCCCCSC[C@H](NC(=O)OC(C)(C)C)C(=O)CCl` [HI-129, N-Boc-S-dodecyl-Cys chloromethyl ketone], the IC50 is 15.1 µM in the assay with Nalm-6 (B-lineage ALL); 15.5 µM in the assay with Molt-3 (T-lineage ALL); 48.9 µM in the assay with BT-20 (breast cancer); 64.6 µM with PC-3 (prostate cancer); > 100 µM in the assay on U-373 (glioblastoma).

Consider `CCCCCCCCCCCCSC[C@H](NC(=O)OCc1ccccc1)C(=O)CCl` [HI-320, N-Benzyloxycarbonyl-S-dodecylcysteine chloromethyl ketone], for which the IC50 is 13.5 µM in the assay with Nalm-6 (B-lineage ALL); > 100 µM with Molt-3 (T-lineage ALL); > 100 µM with BT-20 (breast cancer); > 100 µM in the assay on PC-3 (prostate cancer); > 100 µM with U-373 (glioblastoma).

With `CC(C)=CCC/C(C)=C/CC/C(C)=C/CSCC(=O)C=[N+]=[N-]` [HI-84, S-trans-trans-Farnesyl-mercaptomethyl diazomethyl ketone], the IC50 in the assay on Nalm-6 (B-lineage ALL) was > 100 µM; with Molt-3 (T-lineage ALL), 60.3 µM; in the assay with BT-20 (breast cancer) it was > 100 µM; with PC-3 (prostate cancer) it was > 100 µM; in the assay on U-373 (glioblastoma) it was > 100 µM.

On to `CC(=O)N[C@@H](CSC(c1ccccc1)(c1ccccc1)c1ccccc1)C(=O)CCl` [HI-350, N-Ac-S-trityl-cysteine chloromethyl ketone], for which the IC50 was 10 µM in the assay with Nalm-6 (B-lineage ALL); 26.4 µM in the assay with Molt-3 (T-lineage ALL); 88.8 µM in the assay on BT-20 (breast cancer); 52.2 µM with PC-3 (prostate cancer); 87.1 µM in the assay with U-373 (glioblastoma).

In the case of `CC(C)=CCC/C(C)=C/CC/C(C)=C/CSCCC(=O)C=[N+]=[N-]` [HI-83, S-trans-trans-Farnesyl-mercaptoethyl diazomethyl ketone], the IC50 in the assay on Nalm-6 (B-lineage ALL) was 53.5 µM; in the assay on Molt-3 (T-lineage ALL), 6.8 µM; with BT-20 (breast cancer) it was > 100 µM; with PC-3 (prostate cancer), > 100 µM; with U-373 (glioblastoma) it was > 100 µM.

Take `CCCCCCCCCCCCSC[C@H](NC(=O)c1ccccc1)C(=O)CCl` [HI-491, N-Benzoyl-S-dodecyl-cysteine chloromethyl ketone]: the IC50 was 5.4 µM in the assay with Nalm-6 (B-lineage ALL); 6.5 µM with Molt-3 (T-lineage ALL); > 100 µM with BT-20 (breast cancer); 52.1 µM in the assay with PC-3 (prostate cancer); > 100 µM in the assay on U-373 (glioblastoma).

Take `CC(=O)N[C@@H](CSCC=C(C)C)C(=O)C=[N+]=[N-]` [HI-123, N-Ac-S-(3-methyl-2-butenyl)-Cys diazomethyl ketone]: the IC50 in the assay with Nalm-6 (B-lineage ALL), in the assay with Molt-3 (T-lineage ALL), in the assay with BT-20 (breast cancer), with PC-3 (prostate cancer) and with U-373 (glioblastoma) was > 100 µM in each case.

`CCCCCCCCCCCCSC[C@H](NC(C)=O)C(=O)C=[N+]=[N-]` [HI-348, N-Ac-S-dodecyl-Cys diazomethyl ketone]: the IC50 with Nalm-6 (B-lineage ALL) was 15.4 µM; with Molt-3 (T-lineage ALL) it was 22.9 µM; in the assay on BT-20 (breast cancer) it was 97.9 µM; with PC-3 (prostate cancer), > 100 µM; in the assay on U-373 (glioblastoma) it was > 100 µM.

Regarding `CC(=O)N[C@@H](CSC/C=C(\C)CC/C=C(\C)CCC=C(C)C)C(=O)CCl` [HI-368, N-Ac-S-trans-trans-farnesyl-Cys chloromethyl ketone], the IC50 was 3 µM in the assay on Nalm-6 (B-lineage ALL); 1.4 µM in the assay with Molt-3 (T-lineage ALL); 55.8 µM in the assay with BT-20 (breast cancer); 26.8 µM with PC-3 (prostate cancer); 61.3 µM in the assay on U-373 (glioblastoma).

Take `CCCCCCCCCCCCOC[C@H](NC(C)=O)C(=O)CCl` [HI-489, N-Ac-O-dodecyl-serine chloromethyl ketone]: the IC50 in the assay with Nalm-6 (B-lineage ALL) is 3.8 µM; in the assay with Molt-3 (T-lineage ALL), 15.3 µM; in the assay with BT-20 (breast cancer), > 100 µM; in the assay on PC-3 (prostate cancer), > 100 µM; in the assay on U-373 (glioblastoma) it was > 100 µM.

In the case of `COc1ccc(CSC[C@H](NC(C)=O)C(=O)CCl)cc1` [HI-351, N-Ac-S-4-methoxybenzyl-cysteine chloromethyl ketone], the IC50 was 60.2 µM in the assay with Nalm-6 (B-lineage ALL); 4.75 µM with Molt-3 (T-lineage ALL); 73.1 µM with BT-20 (breast cancer); 43.8 µM with PC-3 (prostate cancer); 45.6 µM in the assay on U-373 (glioblastoma).

For `CCCCCCCCCCCCSC[C@H](NC(=O)OCC1c2ccccc2-c2ccccc21)C(=O)CCl` [HI-398, N-9-Fluorenylmethyloxycarbonyl-S-dodecyl-cysteine chloromethyl ketone], the half-maximal inhibitory concentration (IC50) in the assay on Nalm-6 (B-lineage ALL) was 25.7 µM; in the assay on Molt-3 (T-lineage ALL) it was 32.3 µM; in the assay with BT-20 (breast cancer) it was > 100 µM; with PC-3 (prostate cancer), > 100 µM; in the assay with U-373 (glioblastoma) it was > 100 µM.

For `CC(=O)N[C@@H](CSCc1ccc2ccccc2c1)C(=O)CCl` [HI-392, N-Ac-S-2-naphthylmethyl-cysteine chloromethyl ketone], the IC50 with Nalm-6 (B-lineage ALL) was 2.6 µM; with Molt-3 (T-lineage ALL), 2.9 µM; in the assay with BT-20 (breast cancer), 40.4 µM; in the assay with PC-3 (prostate cancer), 36.6 µM; in the assay with U-373 (glioblastoma), 41.8 µM.

By IC50 is commonly meant the concentration at which inhibition is half-maximal.
